Measurements taken from article PMC7460603 (International Journal of Molecular Sciences, 2020).
Like-named read-outs stand apart in the source and are kept apart here.

Key:
NHEK-1 cells = conditions: non-cancer cells; cited from earlier work
neuromuscular transition = conditions: at pharmaceutically relevant concentrations; cited from earlier work
human serum albumin = conditions: cited from earlier work
human AChE (hAChE) = conditions: read-out: hAChE IC50; previously reported; cited from earlier work
[1] = molecular target: T1, electric eel acetylcholinesterase (eeAChE) (Electrophorus electricus, UniProt O42275); conditions: read-out: eeAChE IC50; previously reported; cited from earlier work
T1 sequence (O42275 24-633): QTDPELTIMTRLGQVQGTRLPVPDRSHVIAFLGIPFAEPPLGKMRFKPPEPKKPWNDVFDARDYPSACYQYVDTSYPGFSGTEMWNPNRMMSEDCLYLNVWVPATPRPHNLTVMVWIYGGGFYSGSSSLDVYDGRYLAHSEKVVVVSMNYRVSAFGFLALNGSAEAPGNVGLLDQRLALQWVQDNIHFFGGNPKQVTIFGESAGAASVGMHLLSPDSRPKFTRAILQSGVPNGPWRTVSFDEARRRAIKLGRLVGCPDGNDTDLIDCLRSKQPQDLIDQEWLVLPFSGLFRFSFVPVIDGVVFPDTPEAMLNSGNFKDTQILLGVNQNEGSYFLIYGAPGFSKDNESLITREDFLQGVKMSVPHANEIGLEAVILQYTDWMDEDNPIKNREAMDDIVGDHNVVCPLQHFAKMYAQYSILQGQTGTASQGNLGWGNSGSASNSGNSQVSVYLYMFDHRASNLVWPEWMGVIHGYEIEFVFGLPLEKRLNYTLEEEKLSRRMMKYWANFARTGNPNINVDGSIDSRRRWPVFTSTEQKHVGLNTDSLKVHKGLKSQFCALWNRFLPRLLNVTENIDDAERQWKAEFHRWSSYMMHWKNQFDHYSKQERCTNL

HUVEC cells = conditions: non-cancer cells; cited from earlier work
[2] = molecular target: T1, electric eel acetylcholinesterase (eeAChE); assay: biochemical; type: biochemical; design: purchased Sigma, St. Louis, MO, USA; conditions: for Ki: three substrate concentrations (0.125, 0.25, 0.5 mM)
Procedure: (§1) Cholinesterase activities were measured by the Ellman method adapted for microtiter plates, as described in Ristovski et al.. Stock solutions of the prepared ruthenium compounds (1 mg/mL) or neostigmine bromide (Sigma-Aldrich, St. Louis, MO, USA) as a positive control were prepared in 100% ethanol and progressively diluted in 100 mM potassium phosphate buffer (pH 7.4) to a final volume of 50 µL. Then, 1 mM acetylthiocholine chloride and 0.5 mM 5,5′-dithiobis-2-nitrobenzoic acid were dissolved in the same buffer and added to the wells of the microtiter plates to the final volume of 150 μL. Electric eel acetylcholinesterase (eeAChE) or horse serum BChE (hsBuChE) (both Sigma, St. Louis, MO, USA) were dissolved in the same buffer to 0.0075 U/mL. Fifty μL of each of the cholinesterases was added to start the reactions, which were followed spectrophotometrically at 405 nm and 25 °C for 5 min using a kinetic microplate reader (Dynex Technologies, Chantilly, VA, USA). Blank reactions without the inhibitors were run in the presence of the appropriate dilution of ethanol. Every measurement was repeated at least three times. For determination of the inhibitory constants, the kinetics were monitored using three different final substrate concentrations (0.125, 0.25, 0.5 mM).

[3] = cited from earlier work
immunoglobulins G = conditions: human serum; cited from earlier work
[4] = molecular target: T2, horse serum butyrylcholinesterase (hsBuChE) (Equus caballus, UniProt P81908); assay: biochemical; type: biochemical; design: purchased Sigma, St. Louis, MO, USA; host or cells: horse serum; conditions: for Ki: three substrate concentrations (0.125, 0.25, 0.5 mM)
T2 sequence (P81908 whole entry): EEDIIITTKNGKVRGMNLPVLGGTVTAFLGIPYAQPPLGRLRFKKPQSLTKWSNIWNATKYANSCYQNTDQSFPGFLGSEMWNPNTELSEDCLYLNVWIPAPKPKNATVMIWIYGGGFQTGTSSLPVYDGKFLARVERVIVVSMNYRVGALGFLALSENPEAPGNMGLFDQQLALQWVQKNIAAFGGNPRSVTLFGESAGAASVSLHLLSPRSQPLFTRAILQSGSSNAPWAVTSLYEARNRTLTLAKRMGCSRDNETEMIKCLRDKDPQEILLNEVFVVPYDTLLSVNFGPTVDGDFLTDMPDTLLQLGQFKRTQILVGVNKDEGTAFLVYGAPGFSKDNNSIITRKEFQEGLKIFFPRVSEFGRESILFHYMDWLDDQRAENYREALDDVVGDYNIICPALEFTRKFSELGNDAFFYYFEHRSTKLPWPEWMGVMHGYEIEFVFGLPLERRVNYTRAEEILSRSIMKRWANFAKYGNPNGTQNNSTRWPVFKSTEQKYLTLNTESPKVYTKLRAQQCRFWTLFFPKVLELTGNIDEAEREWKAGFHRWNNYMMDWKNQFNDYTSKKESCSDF
Procedure: as §1

[5] = test system: glutathione-S-transferase; conditions: cited from earlier work
[6] = molecular target: T2, horse serum butyrylcholinesterase (hsBuChE); conditions: read-out: hsBuChE IC50; previously reported; cited from earlier work
[7] = phosphate buffer solution, cultural media RPMI and FP-RPMI, plasma; cited from earlier work
[8] = ESI-MS stability in solution; conditions: positive ion mode, direct infusion; immediately before measurement and after three days
[9] = 1H NMR stability in aqueous media
Procedure: All assays were carried out immediately after the solution preparation.

[10] = concentration inducing 50% inhibition of enzyme activity, mean ± SEM of three independent measurements, / = no activity, read-out: eeAChE IC50
[11] = concentration inducing 50% inhibition of enzyme activity, mean ± SEM of three independent measurements, / = no activity, read-out: hsBuChE IC50
[12] = read-out: eeAChE IC50, concentration inducing 50% inhibition of enzyme activity, mean ± SEM of three independent measurements, / = no activity
[13] = read-out: hsBuChE IC50, concentration inducing 50% inhibition of enzyme activity, mean ± SEM of three independent measurements, / = no activity

Compound | IC50 [2, 10] | Ki [2] | IC50 [4, 11] | Ki [4] | further results
Cc1ccc(C(C)C)cc1.[Cl][Ru+].[O-]n1ccccc1=S [Compound 1a] | 7.8 ± 0.8 µM | 15.1 µM | 2.3 ± 0.1 µM | 0.5 µM | cytotoxicity against NHEK-1 cells (NHEK-1 cells): no cytotoxicity; physiological response on the neuromuscular transition (neuromuscular transition): did not express any unwanted physiological response; fraction interacting with human serum albumin (human serum albumin): 70%; fraction remaining unbound (human serum albumin): 25%; IC50 (human AChE (hAChE)): 25.1 µM; IC50 [1]: 5.01 µM; cytotoxicity against HUVEC cells (HUVEC cells): no cytotoxicity; stability in D2O solution containing NaCl [3]: confirmed the stability; stability in DMSO-d6/D2O (1H NMR) [3]: stable; fraction interacting with immunoglobulins G (immunoglobulins G): 5%; inhibition of glutathione-S-transferase [5]: inhibited; IC50 [6]: 7.52 µM
Cc1ccc(C(C)C)cc1.Cc1cccn([O-])c1=S.[Cl-].[Ru+2] [Compound 1b] | 10.5 ± 0.7 µM | 9.7 µM | 1.2 ± 0.02 µM | 0.4 µM | stability in aqueous media (UV-Vis) [7]: stable; stability in aqueous solution (ESI-MS, [M − Cl]+ ion) [8]: same spectrum
Cc1ccc(C(C)C)cc1.Cc1ccn([O-])c(=S)c1.[Cl-].[Ru+2] [Compound 1c] | 9.5 ± 1.1 µM | 8.5 µM | 2.7 ± 0.8 µM | 0.9 µM | –
Cc1ccc(=S)n([O-])c1.Cc1ccc(C(C)C)cc1.[Cl-].[Ru+2] [Compound 1d] | 6.6 ± 0.5 µM | 9.7 µM | 1.9 ± 0.4 µM | 0.4 µM | –
Cc1ccc(C(C)C)cc1.Cc1cccc(=S)n1[O-].[Cl-].[Ru+2] [Compound 1e] | 5.1 ± 0.4 µM | 4.9 µM | 0.7 ± 0.1 µM | 3.4 µM | stability under enzymatic assay conditions (1H NMR) ([9]; 6.25% EtOH-d6/D2O, 80.2 mM K2HPO4 and 19.8 mM KH2PO4, immediately and after one hour): remain stable; stability in D2O containing 140 mM NaCl (1H NMR) ([9]; after one day): negligible changes; stability in D2O (1H NMR) ([9]; immediately and after three days): remain the main present species
Cc1ccc(C(C)C)cc1.[Cl][Ru+].[O-]n1ccc2ccccc2c1=S [Compound 1f, [(η^6-p-Cymene)Ru(2-hydroxyisoquinoline-1-(2H)-thionato)Cl]] | 8.1 ± 0.5 µM | 12.3 µM | 1.3 ± 0.1 µM | 0.4 µM | –
CN(C)C(=O)Oc1cccc([N+](C)(C)C)c1 [Neostigmine bromide, reference compound] | – | – | – | – | IC50 [2]: 4.3 ± 0.8 µM; IC50 [4]: 37.3 ± 4.2 µM
On1ccccc1=S [a, 1-hydroxypyridine-2(1H)-thione] | – | – | – | – | IC50 [2, 12]: > 100 µM; IC50 [4, 13]: > 100 µM
Cc1cccn(O)c1=S [b] | – | – | – | – | IC50 [2, 12]: > 100 µM; IC50 [4, 13]: > 100 µM
Cc1ccn(O)c(=S)c1 [c] | – | – | – | – | IC50 ([2]; read-out: eeAChE IC50): > 100 µM; IC50 ([4]; read-out: hsBuChE IC50): > 100 µM
Cc1ccc(=S)n(O)c1 [d] | – | – | – | – | IC50 [2, 12]: > 100 µM; IC50 [4, 13]: > 100 µM
Cc1cccc(=S)n1O [e] | – | – | – | – | IC50 [2, 12]: > 100 µM; IC50 [4]: > 100 µM
On1ccc2ccccc2c1=S [f, 2-Hydroxyisoquinoline-1-(2H)-thione] | – | – | – | – | IC50 [2, 12]: > 100 µM; IC50 [4, 13]: > 100 µM
On1c(=S)ccc2ccccc21 [g, 1-Hydroxyquinoline-2-(1H)-thione] | > 100 µM | – | > 100 µM | – | –
On1cc2ccccc2cc1=S [h, 2-Hydroxyisoquinoline-3-(2H)-thione] | > 100 µM | – | 53 µM | – | activity against eeAChE (in words) [2]: poorly active; activity against hsBuChE (in words) [4]: poorly active
[(η^6-p-Cymene)Ru(1-hydroxyquinoline-2-(1H)-thionato)Cl] [Compound 1g] | 4.9 ± 0.1 µM | 5.6 µM | 0.2 ± 0.05 µM | 0.2 µM | –
[(η^6-p-Cymene)Ru(2-hydroxyisoquinoline-3-(2H)-thionato)Cl] [Compound 1h] | 14.3 ± 2 µM | 20.1 µM | 0.7 ± 0.1 µM | 0.2 µM | –
